Key:
[1] = target: C-C chemokine receptor type 5 (Homo sapiens, UniProt P51681); assay type: cell membranes, Membrane; conditions: hek293; note: in other assays of this panel Not Active means under 50% inhibition at 10 µM
Vasopressin V1a receptor = Vasopressin V1a receptor (Homo sapiens, UniProt P37288); assay type: cell membranes, Membrane; conditions: hek293; note: in other assays of this panel Not Active means under 50% inhibition at 10 µM
Progesterone receptor = target: T1, Progesterone receptor (Bos taurus, UniProt Q690N0); assay: DRUGMATRIX: Progesterone radioligand binding (ligand: [3H] R-5020); assay type: tissue-based, Uterus; conditions: Not Active = under 50% inhibition at 10 µM
T1 sequence (Q690N0 whole entry): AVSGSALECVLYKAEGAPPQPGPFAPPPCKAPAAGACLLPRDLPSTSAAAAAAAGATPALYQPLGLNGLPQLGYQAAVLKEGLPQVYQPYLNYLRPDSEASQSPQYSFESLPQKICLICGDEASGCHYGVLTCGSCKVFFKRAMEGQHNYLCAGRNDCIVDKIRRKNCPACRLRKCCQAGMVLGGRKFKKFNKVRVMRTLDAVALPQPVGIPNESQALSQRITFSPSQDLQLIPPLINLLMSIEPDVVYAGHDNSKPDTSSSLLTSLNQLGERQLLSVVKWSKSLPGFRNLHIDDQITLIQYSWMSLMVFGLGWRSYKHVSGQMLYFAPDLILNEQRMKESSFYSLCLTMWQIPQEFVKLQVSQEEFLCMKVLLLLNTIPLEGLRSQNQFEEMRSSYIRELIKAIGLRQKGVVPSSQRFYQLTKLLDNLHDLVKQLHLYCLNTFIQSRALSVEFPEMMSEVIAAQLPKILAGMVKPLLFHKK

Cytochrome P450 2E1 = Cytochrome P450 2E1 (Homo sapiens, UniProt P05181); conditions: bti-tn-5b1-4; note: in other assays of this panel Not Active means under 50% inhibition at 10 µM
Chain of Cytochrome P450 2E1 (P05181 whole entry): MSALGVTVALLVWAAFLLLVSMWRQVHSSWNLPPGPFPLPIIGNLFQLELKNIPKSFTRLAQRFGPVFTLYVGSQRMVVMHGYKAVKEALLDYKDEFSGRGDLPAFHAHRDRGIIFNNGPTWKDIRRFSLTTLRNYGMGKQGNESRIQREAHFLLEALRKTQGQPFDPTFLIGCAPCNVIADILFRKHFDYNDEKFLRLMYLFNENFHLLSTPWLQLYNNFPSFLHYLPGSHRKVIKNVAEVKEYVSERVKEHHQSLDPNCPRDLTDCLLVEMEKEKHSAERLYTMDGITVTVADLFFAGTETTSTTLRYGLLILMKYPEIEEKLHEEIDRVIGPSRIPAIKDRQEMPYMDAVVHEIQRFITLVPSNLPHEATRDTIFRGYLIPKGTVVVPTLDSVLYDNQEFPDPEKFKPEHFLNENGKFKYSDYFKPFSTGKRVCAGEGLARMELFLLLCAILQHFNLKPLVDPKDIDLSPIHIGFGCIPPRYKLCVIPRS

Glucocorticoid receptor = target: T2, Glucocorticoid receptor (Homo sapiens, UniProt P04150); conditions: hela s3; note: in other assays of this panel Not Active means under 50% inhibition at 10 µM
T2 sequence (P04150 whole entry): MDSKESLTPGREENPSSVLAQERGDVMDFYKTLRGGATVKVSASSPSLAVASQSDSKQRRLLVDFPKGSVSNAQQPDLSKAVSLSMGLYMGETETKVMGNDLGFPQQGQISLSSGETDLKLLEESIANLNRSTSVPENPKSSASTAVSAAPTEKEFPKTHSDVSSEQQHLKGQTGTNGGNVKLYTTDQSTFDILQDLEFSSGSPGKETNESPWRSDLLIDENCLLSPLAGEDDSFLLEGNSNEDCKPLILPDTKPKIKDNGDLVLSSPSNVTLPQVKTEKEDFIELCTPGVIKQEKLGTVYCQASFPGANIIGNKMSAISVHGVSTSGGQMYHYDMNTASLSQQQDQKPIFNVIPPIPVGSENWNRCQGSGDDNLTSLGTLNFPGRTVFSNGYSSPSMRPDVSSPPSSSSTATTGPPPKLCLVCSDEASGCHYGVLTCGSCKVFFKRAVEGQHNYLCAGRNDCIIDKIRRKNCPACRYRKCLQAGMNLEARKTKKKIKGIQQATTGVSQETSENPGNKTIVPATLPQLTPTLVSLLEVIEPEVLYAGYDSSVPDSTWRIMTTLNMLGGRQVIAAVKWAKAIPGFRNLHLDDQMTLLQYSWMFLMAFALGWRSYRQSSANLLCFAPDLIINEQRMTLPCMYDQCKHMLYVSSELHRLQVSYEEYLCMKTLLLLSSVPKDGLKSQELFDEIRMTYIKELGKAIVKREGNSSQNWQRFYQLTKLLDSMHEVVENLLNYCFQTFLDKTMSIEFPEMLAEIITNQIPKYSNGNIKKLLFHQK

Glycine receptor = Glycine receptor (Rattus norvegicus, UniProt P22771+P24524+P07727+P20781); assay type: cell membranes, Wistar, Spinal cord, Membrane; note: in other assays of this panel Not Active means under 50% inhibition at 10 µM
D(3) dopamine receptor = D(3) dopamine receptor (Homo sapiens, UniProt P35462); assay: DRUGMATRIX: Dopamine D3 radioligand binding (ligand: [3H] Spiperone); assay type: cell membranes, CHO, Membrane; conditions: cho
Chain of D(3) dopamine receptor (P35462 whole entry): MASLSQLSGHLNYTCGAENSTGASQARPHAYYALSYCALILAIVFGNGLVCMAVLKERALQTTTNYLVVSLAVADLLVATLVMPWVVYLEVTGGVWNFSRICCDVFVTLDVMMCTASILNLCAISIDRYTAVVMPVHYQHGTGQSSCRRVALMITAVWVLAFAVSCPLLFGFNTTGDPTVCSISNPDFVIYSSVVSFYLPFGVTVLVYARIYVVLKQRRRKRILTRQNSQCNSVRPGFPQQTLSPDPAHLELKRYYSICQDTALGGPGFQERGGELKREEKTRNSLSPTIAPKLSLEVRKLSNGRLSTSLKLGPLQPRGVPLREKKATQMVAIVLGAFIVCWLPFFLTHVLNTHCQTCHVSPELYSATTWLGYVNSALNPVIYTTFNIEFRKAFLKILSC

[2] = target: T3, C-C chemokine receptor type 4 (Homo sapiens, UniProt P51679); assay type: cell membranes, Membrane; conditions: chem-1; note: in other assays of this panel Not Active means under 50% inhibition at 10 µM
T3 sequence (P51679 whole entry): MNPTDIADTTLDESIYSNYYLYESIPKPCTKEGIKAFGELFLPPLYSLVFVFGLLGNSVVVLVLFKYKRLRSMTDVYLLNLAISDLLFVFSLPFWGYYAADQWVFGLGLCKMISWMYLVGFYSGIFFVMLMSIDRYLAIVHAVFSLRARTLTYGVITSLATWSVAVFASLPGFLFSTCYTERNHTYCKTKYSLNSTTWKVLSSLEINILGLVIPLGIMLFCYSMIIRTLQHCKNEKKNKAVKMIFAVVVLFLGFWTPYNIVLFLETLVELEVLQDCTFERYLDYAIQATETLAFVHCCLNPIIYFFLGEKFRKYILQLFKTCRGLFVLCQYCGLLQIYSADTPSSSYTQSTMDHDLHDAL

Chain of Vasopressin V1a receptor (P37288 whole entry): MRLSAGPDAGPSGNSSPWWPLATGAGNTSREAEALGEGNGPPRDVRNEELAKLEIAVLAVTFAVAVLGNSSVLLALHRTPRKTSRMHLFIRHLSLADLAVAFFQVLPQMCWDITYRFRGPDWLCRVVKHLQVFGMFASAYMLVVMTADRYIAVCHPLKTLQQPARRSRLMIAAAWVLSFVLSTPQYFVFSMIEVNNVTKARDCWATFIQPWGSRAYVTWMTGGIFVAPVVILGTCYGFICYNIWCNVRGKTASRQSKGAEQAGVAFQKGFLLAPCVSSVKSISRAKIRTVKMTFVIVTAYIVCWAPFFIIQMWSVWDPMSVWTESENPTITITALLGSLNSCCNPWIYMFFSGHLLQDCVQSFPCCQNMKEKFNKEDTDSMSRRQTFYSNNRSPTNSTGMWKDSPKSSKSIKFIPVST
Chain of C-C chemokine receptor type 5 (P51681 whole entry): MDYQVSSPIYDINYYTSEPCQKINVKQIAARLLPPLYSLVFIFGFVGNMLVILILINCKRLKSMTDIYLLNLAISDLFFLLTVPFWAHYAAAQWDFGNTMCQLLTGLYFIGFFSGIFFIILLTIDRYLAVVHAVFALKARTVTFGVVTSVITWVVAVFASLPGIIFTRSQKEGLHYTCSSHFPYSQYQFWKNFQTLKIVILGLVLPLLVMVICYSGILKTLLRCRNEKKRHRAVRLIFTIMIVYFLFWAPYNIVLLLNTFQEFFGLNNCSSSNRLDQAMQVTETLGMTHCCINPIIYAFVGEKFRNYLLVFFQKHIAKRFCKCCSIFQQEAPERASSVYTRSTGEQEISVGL

C=C(CC)C(=O)c1ccc(OCC(=O)O)c(Cl)c1Cl [ETHACRYNIC ACID]
Not Active: IC50 [1] | IC50 (Vasopressin V1a receptor) | IC50 (Progesterone receptor) | IC50 (Cytochrome P450 2E1) | Ki (Cytochrome P450 2E1) | IC50 (Glucocorticoid receptor) | IC50 (Glycine receptor) | IC50 (D(3) dopamine receptor) | IC50 [2]

CC(=O)OCC(CCn1cnc2cnc(N)nc21)COC(C)=O [FAMCICLOVIR]
Not Active: IC50 [1] | IC50 (Vasopressin V1a receptor) | IC50 (Progesterone receptor) | IC50 (Cytochrome P450 2E1) | Ki (Cytochrome P450 2E1) | IC50 (Glucocorticoid receptor) | IC50 (Glycine receptor) | IC50 (D(3) dopamine receptor) | IC50 [2]

O=C(O)Cc1ccc(-c2ccccc2)cc1 [FELBINAC]
Not Active: IC50 [1] | IC50 (Vasopressin V1a receptor) | IC50 (Progesterone receptor) | IC50 (Cytochrome P450 2E1) | Ki (Cytochrome P450 2E1) | IC50 (Glucocorticoid receptor) | IC50 (Glycine receptor) | IC50 (D(3) dopamine receptor) | IC50 [2]

CCOC(=O)C1=C(C)NC(C)=C(C(=O)OC)C1c1cccc(Cl)c1Cl (stereo not given) [FELODIPINE]
Not Active: IC50 [1] | IC50 (Vasopressin V1a receptor) | IC50 (Progesterone receptor) | IC50 (Cytochrome P450 2E1) | Ki (Cytochrome P450 2E1) | IC50 (Glucocorticoid receptor) | IC50 (Glycine receptor) | IC50 (D(3) dopamine receptor) | IC50 [2]

C[C@H]([C@](O)(Cn1cncn1)c1ccc(F)cc1F)S(C)(=O)=O [GENACONAZOLE]
Not Active: IC50 [1] | IC50 (Vasopressin V1a receptor) | IC50 (Progesterone receptor) | IC50 (Cytochrome P450 2E1) | Ki (Cytochrome P450 2E1) | IC50 (Glucocorticoid receptor) | IC50 (Glycine receptor) | IC50 (D(3) dopamine receptor) | IC50 [2]

Cc1c(F)c(N2CCNC(C)C2)cc2c1c(=O)c(C(=O)O)cn2C1CC1 (stereo not given) [GREPAFLOXACIN]
Not Active: IC50 [1] | IC50 (Vasopressin V1a receptor) | IC50 (Progesterone receptor) | IC50 (Cytochrome P450 2E1) | Ki (Cytochrome P450 2E1) | IC50 (Glucocorticoid receptor) | IC50 (Glycine receptor) | IC50 (D(3) dopamine receptor) | IC50 [2]

NC[C@H]1O[C@H](O[C@H]2[C@H](O)[C@@H](O[C@H]3O[C@H](CO)[C@@H](O)[C@H](N)[C@H]3O)[C@H](N)C[C@@H]2N)[C@H](O)[C@@H](O)[C@@H]1O [KANAMYCIN]
Not Active: IC50 [1] | IC50 (Vasopressin V1a receptor) | IC50 (Progesterone receptor) | IC50 (Cytochrome P450 2E1) | Ki (Cytochrome P450 2E1) | IC50 (Glucocorticoid receptor) | IC50 (Glycine receptor) | IC50 (D(3) dopamine receptor) | IC50 [2]

CC[C@H](C)C(=O)O[C@H]1C[C@@H](C)C=C2C=C[C@H](C)[C@H](CC[C@@H]3C[C@@H](O)CC(=O)O3)[C@H]21 [LOVASTATIN]
Not Active: IC50 [1] | IC50 (Vasopressin V1a receptor) | IC50 (Progesterone receptor) | IC50 (Cytochrome P450 2E1) | Ki (Cytochrome P450 2E1) | IC50 (Glucocorticoid receptor) | IC50 (Glycine receptor) | IC50 (D(3) dopamine receptor) | IC50 [2]

Cc1cccc(Nc2ccccc2C(=O)O)c1C [MEFENAMIC ACID]
Not Active: IC50 [1] | IC50 (Vasopressin V1a receptor) | IC50 (Progesterone receptor) | IC50 (Cytochrome P450 2E1) | Ki (Cytochrome P450 2E1) | IC50 (Glucocorticoid receptor) | IC50 (Glycine receptor) | IC50 (D(3) dopamine receptor) | IC50 [2]

COc1ccccc1OCC(O)COC(N)=O (stereo not given) [METHOCARBAMOL]
Not Active: IC50 [1] | IC50 (Vasopressin V1a receptor) | IC50 (Progesterone receptor) | IC50 (Cytochrome P450 2E1) | Ki (Cytochrome P450 2E1) | IC50 (Glucocorticoid receptor) | IC50 (Glycine receptor) | IC50 (D(3) dopamine receptor) | IC50 [2]

COc1ccc2cc(CCC(C)=O)ccc2c1 [NABUMETONE]
Not Active: IC50 [1] | IC50 (Vasopressin V1a receptor) | IC50 (Progesterone receptor) | IC50 (Cytochrome P450 2E1) | Ki (Cytochrome P450 2E1) | IC50 (Glucocorticoid receptor) | IC50 (Glycine receptor) | IC50 (D(3) dopamine receptor) | IC50 [2]

CNC(=C[N+](=O)[O-])NCCSCc1csc(CN(C)C)n1 [NIZATIDINE]
Not Active: IC50 [1] | IC50 (Vasopressin V1a receptor) | IC50 (Progesterone receptor) | IC50 (Cytochrome P450 2E1) | Ki (Cytochrome P450 2E1) | IC50 (Glucocorticoid receptor) | IC50 (Glycine receptor) | IC50 (D(3) dopamine receptor) | IC50 [2]

C[C@]12C/C(=C/O)C(=O)C[C@@H]1CC[C@@H]1[C@@H]2CC[C@@]2(C)[C@H]1CC[C@]2(C)O [OXYMETHOLONE]
Not Active: IC50 [1] | IC50 (Vasopressin V1a receptor) | IC50 (Progesterone receptor) | IC50 (Cytochrome P450 2E1) | Ki (Cytochrome P450 2E1) | IC50 (Glucocorticoid receptor) | IC50 (Glycine receptor) | IC50 (D(3) dopamine receptor) | IC50 [2]

OCCN1CCN(CCCN2c3ccccc3Sc3ccc(Cl)cc32)CC1 [PERPHENAZINE]
Not Active: IC50 [1] | IC50 (Vasopressin V1a receptor) | IC50 (Progesterone receptor) | IC50 (Cytochrome P450 2E1) | Ki (Cytochrome P450 2E1) | IC50 (Glucocorticoid receptor) | IC50 (Glycine receptor) | IC50 (D(3) dopamine receptor) | IC50 [2]

CCCCC1C(=O)N(c2ccccc2)N(c2ccccc2)C1=O [PHENYLBUTAZONE]
Not Active: IC50 [1] | IC50 (Vasopressin V1a receptor) | IC50 (Progesterone receptor) | IC50 (Cytochrome P450 2E1) | Ki (Cytochrome P450 2E1) | IC50 (Glucocorticoid receptor) | IC50 (Glycine receptor) | IC50 (D(3) dopamine receptor) | IC50 [2]

Cc1cccc(Nc2cc(Cl)nc(SCC(=O)O)n2)c1C [PIRINIXIC ACID]
Not Active: IC50 [1] | IC50 (Vasopressin V1a receptor) | IC50 (Progesterone receptor) | IC50 (Cytochrome P450 2E1) | Ki (Cytochrome P450 2E1) | IC50 (Glucocorticoid receptor) | IC50 (Glycine receptor) | IC50 (D(3) dopamine receptor) | IC50 [2]

CC[C@H](C)C(=O)O[C@H]1C[C@H](O)C=C2C=C[C@H](C)[C@H](CC[C@@H](O)C[C@@H](O)CC(=O)O)[C@H]21 [PRAVASTATIN]
Not Active: IC50 [1] | IC50 (Vasopressin V1a receptor) | IC50 (Progesterone receptor) | IC50 (Cytochrome P450 2E1) | Ki (Cytochrome P450 2E1) | IC50 (Glucocorticoid receptor) | IC50 (Glycine receptor) | IC50 (D(3) dopamine receptor) | IC50 [2]

CC(C)(Sc1cc(C(C)(C)C)c(O)c(C(C)(C)C)c1)Sc1cc(C(C)(C)C)c(O)c(C(C)(C)C)c1 [PROBUCOL]
Not Active: IC50 [1] | IC50 (Vasopressin V1a receptor) | IC50 (Progesterone receptor) | IC50 (Cytochrome P450 2E1) | Ki (Cytochrome P450 2E1) | IC50 (Glucocorticoid receptor) | IC50 (Glycine receptor) | IC50 (D(3) dopamine receptor) | IC50 [2]

COBALT(II) ACETYLACETONATE
Not Active: IC50 [1] | Ki [1] | IC50 (Vasopressin V1a receptor) | Ki (Vasopressin V1a receptor) | IC50 (Progesterone receptor) | Ki (Progesterone receptor) | IC50 (Cytochrome P450 2E1) | Ki (Cytochrome P450 2E1) | IC50 (Glucocorticoid receptor) | Ki (Glucocorticoid receptor) | IC50 (Glycine receptor) | Ki (Glycine receptor) | IC50 (D(3) dopamine receptor) | Ki (D(3) dopamine receptor) | IC50 [2] | Ki [2]

INSULIN HUMAN
Not Active: IC50 [1] | Ki [1] | IC50 (Vasopressin V1a receptor) | Ki (Vasopressin V1a receptor) | IC50 (Progesterone receptor) | Ki (Progesterone receptor) | IC50 (Cytochrome P450 2E1) | Ki (Cytochrome P450 2E1) | IC50 (Glucocorticoid receptor) | Ki (Glucocorticoid receptor) | IC50 (Glycine receptor) | Ki (Glycine receptor) | IC50 (D(3) dopamine receptor) | Ki (D(3) dopamine receptor) | IC50 [2] | Ki [2]

POLYVINYL ALCOHOL
Not Active: IC50 [1] | Ki [1] | IC50 (Vasopressin V1a receptor) | Ki (Vasopressin V1a receptor) | IC50 (Progesterone receptor) | Ki (Progesterone receptor) | IC50 (Cytochrome P450 2E1) | Ki (Cytochrome P450 2E1) | IC50 (Glucocorticoid receptor) | Ki (Glucocorticoid receptor) | IC50 (Glycine receptor) | Ki (Glycine receptor) | IC50 (D(3) dopamine receptor) | Ki (D(3) dopamine receptor) | IC50 [2] | Ki [2]

— ChEMBL document CHEMBL1909046, “DrugMatrix in vitro pharmacology data”
